Each structure is given as a SMILES string. Read-outs that look alike come from different tables or passages of the source.

For the assay, the system named is pancreatic cancer cell lines (e.g. MIA PaCa-2). Description: Cell based assay, cell viability (CellTiter-Glo), pancreatic cancer cell lines. The settings on record: Homo sapiens. As to the method: Commercially available bladder cancer, prostate cancer, lung cancer, breast cancer, blood cancer, pancreatic cancer, colorectal cancer, brain cancer, neuroblastoma, melanoma, liver cancer, cervical carcinoma, ovarian cancer, renal cancer, and papilloma cell lines were each treated with trypsin-EDTA and cultured, followed by being seeded in each well of a 96 well plate. After 24 hours of treatment at constant temperature, the respective cells were treated with the candidate compound so that a final concentration became 0 to 2 μM. The treated cells were additionally cultured for 72 hours, and cell viability was measured by using an ATP detection method (CellTiter-Glo® Luminescent Cell Viability Assay, Promega).
(In general: Cellular ATP, detected with luciferase, serves as a proxy for viable cell number.)

[1] abbreviates: pancreatic cancer cell line AsPC-1, 72 hours, read-out: IC50, AsPC-1.
The mark [2] stands for this setting: pancreatic cancer cell line BxPC-3, 72 hours, read-out: IC50, BxPC-3.
Setting [3] is: pancreatic cancer cell line CFPAC-1, 72 hours, read-out: IC50, CFPAC-1.
[4] abbreviates: pancreatic cancer cell line Capan-1, 72 hours, read-out: IC50, Capan-1.
The mark [5] stands for this setting: pancreatic cancer cell line Capan-2, 72 hours, read-out: IC50, Capan-2.
[6] abbreviates: pancreatic cancer cell line MIA PaCa-2, 72 hours, read-out: IC50, MIA PaCa-2.
The mark [7] stands for this setting: pancreatic cancer cell line PANC-1, 72 hours, read-out: IC50, PANC-1.

On to `CC(=O)c1c([S+](C)[O-])[nH]c2c(Br)ccc(Cl)c2c1=O` (centres unmarked) [Compound 1, 3-acetyl-8-bromo-5-chloro-2-(methylsulfinyl)quinolin-4(1H)-one], for which the IC50 (usually the concentration needed to halve the response being measured) was over 2000 nM under setting [1]; over 2000 nM under setting [2]; over 10000 nM under setting [3]; over 2000 nM under setting [4]; over 2000 nM under setting [5]; 1590 nM under setting [6]. Further, under setting [7], the IC50 was over 2000 nM.
Take `CSc1[nH]c2c(Br)ccc(Cl)c2c(=O)c1C(C)=O` [Compound 2, 3-acetyl-8-bromo-5-chloro-2-(methylthio)quinolin-4(1H)-one]: the IC50 reads like this: under setting [1], over 2000 nM; under setting [2], over 2000 nM; under setting [3], over 10000 nM; under setting [4], over 2000 nM; under setting [5], over 2000 nM; under setting [6], over 2000 nM. Further, the IC50 under setting [7] was over 2000 nM.
`CC(=O)c1c(SCc2ccccc2)[nH]c2c(Br)ccc(Cl)c2c1=O` [Compound 3, 3-acetyl-2-(benzylthio)-8-bromo-5-chloroquinolin-4(1H)-one]: the IC50 under setting [1] is over 2000 nM; the half-inhibitory concentration (IC50) under setting [2] is over 2000 nM; the IC50 under setting [3] was over 10000 nM; the half-inhibitory concentration (IC50) under setting [4] was over 2000 nM; the half-inhibitory concentration (IC50) under setting [5] is over 2000 nM; the IC50 under setting [6] is over 2000 nM. The IC50 under setting [7] was over 2000 nM.
Consider `CC(=O)c1c([S+]([O-])Cc2ccccc2)nc2c(Br)ccc(Cl)c2c1O` (centres unmarked) [Compound 4], for which the IC50 under setting [1] was over 2000 nM; the IC50 under setting [2] is over 2000 nM; the IC50 under setting [3] was over 10000 nM; the half-inhibitory concentration (IC50) under setting [4] is over 2000 nM; the concentration for half-maximal inhibition (IC50) under setting [5] is over 2000 nM; the IC50 under setting [6] worked out at 1340 nM. Besides, under setting [7], the IC50 was over 2000 nM.
In the case of `CSc1c(C(C)=O)c(=O)c2c(Cl)ccc(Br)c2n1C` [Compound 5, 3-acetyl-8-bromo-5-chloro-1-methyl-2-(methylthio)quinolin-4(1H)-one], the IC50 by setting is: under setting [1], over 2000 nM; under setting [2], over 2000 nM; under setting [3], over 10000 nM; under setting [4], over 2000 nM; under setting [5], over 2000 nM; under setting [6], over 2000 nM. For the same compound, the IC50 under setting [7] is over 2000 nM.
On to `CC(=O)c1c([S+](C)[O-])[nH]c2c(Cl)ccc(Cl)c2c1=O` (centres unmarked) [Compound 6, 3-acetyl-5,8-dichloro-2-(methylsulfinyl)quinolin-4(1H)-one], for which the IC50 was over 2000 nM under setting [1]; over 2000 nM under setting [2]; over 10000 nM under setting [3]; over 2000 nM under setting [4]; over 2000 nM under setting [5]; 1350 nM under setting [6]. The IC50 under setting [7] is over 2000 nM.
`CSc1c(C(C)=O)c(=O)c2cc(F)ccc2n1C` [Compound 7, 3-acetyl-6-fluoro-1-methyl-2-(methylthio)quinolin-4(1H)-one]: the IC50 reads like this: under setting [1], over 2000 nM; under setting [2], over 2000 nM; under setting [3], over 10000 nM; under setting [4], over 2000 nM; under setting [5], over 2000 nM; under setting [6], over 2000 nM. Also, the IC50 under setting [7] is over 2000 nM.
Take `CSc1[nH]c2ccc(F)cc2c(=O)c1C(C)=O` [Compound 8, 1-(6-fluoro-4-hydroxy-2-(methylthio)quinolin-3-yl)ethan-1-one]: the IC50 was over 2000 nM under setting [1]; over 2000 nM under setting [2]; over 10000 nM under setting [3]; over 2000 nM under setting [4]; over 2000 nM under setting [5]; over 2000 nM under setting [6]. Moreover, the IC50 under setting [7] was over 2000 nM.
With `CC(=O)c1c([S+](C)[O-])n(C(=O)c2ccc(Br)cc2)c2c(Br)ccc(Cl)c2c1=O` (centres unmarked) [Compound 9, 3-acetyl-8-bromo-1-(4-bromobenzoyl)-5-chloro-2-(methylsulfinyl)quinolin-4(1H)-one], the IC50 was over 2000 nM under setting [1]; over 2000 nM under setting [2]; over 10000 nM under setting [3]; over 2000 nM under setting [4]; over 2000 nM under setting [5]; 1030 nM under setting [6]. In addition, the IC50 under setting [7] is over 2000 nM.
For the compound `CC(=O)c1c(SCc2ccc(Cl)cc2)[nH]c2c(Br)ccc(Cl)c2c1=O` [Compound 10, 3-acetyl-8-bromo-5-chloro-2-((4-chlorobenzyl)thio)quinolin-4(1H)-one], the IC50 is, setting by setting: under setting [1], over 2000 nM; under setting [2], over 2000 nM; under setting [3], over 10000 nM; under setting [4], over 2000 nM; under setting [5], over 2000 nM; under setting [6], over 2000 nM. For the same compound, the IC50 under setting [7] is over 2000 nM.
For `CC(=O)c1c([S+]([O-])Cc2ccc(Cl)cc2)[nH]c2c(Br)ccc(Cl)c2c1=O` (centres unmarked) [Compound 11, 3-acetyl-8-bromo-5-chloro-2-((4-chlorobenzyl)sulfinyl)quinolin-4(1H)-one], the IC50 is over 2000 nM under setting [1]; over 2000 nM under setting [2]; over 10000 nM under setting [3]; over 2000 nM under setting [4]; over 2000 nM under setting [5]; over 2000 nM under setting [6]. In addition, under setting [7], the IC50 is over 2000 nM.
Turning to `CC(=O)c1c(Sc2ccccc2)[nH]c2c(Br)ccc(Cl)c2c1=O` [Compound 12, 3-acetyl-8-bromo-5-chloro-2-(phenylthio)quinolin-4(1H)-one], the IC50 under setting [1] is over 2000 nM; the IC50 under setting [2] was over 2000 nM; the half-inhibitory concentration (IC50) under setting [3] was over 10000 nM; the IC50 under setting [4] is over 2000 nM; the IC50 under setting [5] is over 2000 nM; the IC50 under setting [6] is over 2000 nM. In addition, the IC50 under setting [7] was over 2000 nM.
With `CC(=O)c1c([S+]([O-])c2ccccc2)[nH]c2c(Br)ccc(Cl)c2c1=O` (centres unmarked) [Compound 13, 3-acetyl-8-bromo-5-chloro-2-(phenylsulfinyl)quinolin-4(1H)-one], the half-inhibitory concentration (IC50) runs as follows: under setting [1], over 2000 nM; under setting [2], over 2000 nM; under setting [3], over 10000 nM; under setting [4], over 2000 nM; under setting [5], over 2000 nM; under setting [6], over 2000 nM. Also, the IC50 under setting [7] is over 2000 nM.
For `COc1ccccc1Sc1[nH]c2c(Br)ccc(Cl)c2c(=O)c1C(C)=O` [Compound 14, 3-acetyl-8-bromo-5-chloro-2-((2-methoxyphenyl)thio)quinolin-4(1H)-one], the IC50 reads like this: under setting [1], over 2000 nM; under setting [2], over 2000 nM; under setting [3], over 10000 nM; under setting [4], over 2000 nM; under setting [5], over 2000 nM; under setting [6], over 2000 nM. In addition, under setting [7], the IC50 was over 2000 nM.
With `COc1ccccc1[S+]([O-])c1[nH]c2c(Br)ccc(Cl)c2c(=O)c1C(C)=O` (centres unmarked) [Compound 15, 3-acetyl-8-bromo-5-chloro-2-((2-methoxyphenyl)sulfinyl)quinolin-4(1H)-one], the IC50 is over 2000 nM under setting [1]; over 2000 nM under setting [2]; over 10000 nM under setting [3]; over 2000 nM under setting [4]; over 2000 nM under setting [5]; 1630 nM under setting [6]. Further, the IC50 under setting [7] is over 2000 nM.
Turning to `CC(=O)c1c(Sc2ccc(Br)cc2)[nH]c2c(Br)ccc(Cl)c2c1=O` [Compound 16, 3-acetyl-8-bromo-2-((4-bromophenyl)thio)-5-chloroquinolin-4(1H)-one], the IC50 runs as follows: under setting [1], over 2000 nM; under setting [2], over 2000 nM; under setting [3], over 10000 nM; under setting [4], over 2000 nM; under setting [5], over 2000 nM; under setting [6], over 2000 nM. In addition, the IC50 under setting [7] is over 2000 nM.
As to `CC(=O)c1c([S+]([O-])c2ccc(Br)cc2)[nH]c2c(Br)ccc(Cl)c2c1=O` (centres unmarked) [Compound 17, 3-acetyl-8-bromo-2-((4-bromophenyl)sulfinyl)-5-chloroquinolin-4(1H)-one], the IC50 runs as follows: under setting [1], over 2000 nM; under setting [2], over 2000 nM; under setting [3], over 10000 nM; under setting [4], over 2000 nM; under setting [5], over 2000 nM; under setting [6], over 2000 nM. Also, the IC50 under setting [7] is over 2000 nM.
`CSc1c(C(C)=O)c(=O)c2c(Cl)ccc(Br)c2n1C(C)=O` [Compound 18, 1,1′-(8-bromo-5-chloro-2-(methylthio)-4-oxoquinoline-1,3(4H)-diyl)bis(ethan-1-one)]: the concentration for half-maximal inhibition (IC50) is over 2000 nM under setting [1]; over 2000 nM under setting [2]; over 10000 nM under setting [3]; over 2000 nM under setting [4]; over 2000 nM under setting [5]; over 2000 nM under setting [6]. Also, under setting [7], the IC50 was over 2000 nM.
As for `CC(=O)c1c([S+](C)[O-])n(C(C)=O)c2c(Br)ccc(Cl)c2c1=O` (centres unmarked) [Compound 19, 1,1′-(8-bromo-5-chloro-2-(methylsulfinyl)-4-oxoquinoline-1,3(4H)-diyl)bis(ethan-1-one)], the IC50 under setting [1] is over 2000 nM; the IC50 under setting [2] is over 2000 nM; the IC50 under setting [3] was over 10000 nM; the half-maximal inhibitory concentration (IC50) under setting [4] was over 2000 nM; the IC50 under setting [5] is over 2000 nM; the IC50 under setting [6] was over 2000 nM. In addition, the IC50 under setting [7] is over 2000 nM.
With `CC(=O)c1c([S+]([O-])Cc2ccccc2)n(C(=O)c2ccc(Br)cc2)c2c(Br)ccc(Cl)c2c1=O` (centres unmarked) [Compound 20, 3-acetyl-2-(benzylsulfinyl)-8-bromo-1-(4-bromobenzoyl)-5-chloroquinolin-4(1H)-one], the half-maximal inhibitory concentration (IC50) by setting is: under setting [1], over 2000 nM; under setting [2], over 2000 nM; under setting [3], over 10000 nM; under setting [4], over 2000 nM; under setting [5], over 2000 nM; under setting [6], over 2000 nM. Also, the IC50 under setting [7] was over 2000 nM.
As for `CC(=O)c1c(S(C)(=O)=O)n(C(=O)c2ccc(Br)cc2)c2c(Br)ccc(Cl)c2c1=O` [Compound 21, 3-acetyl-8-bromo-1-(4-bromobenzoyl)-5-chloro-2-(methylsulfonyl)quinolin-4(1H)-one], the IC50 under setting [1] is over 2000 nM; the IC50 under setting [2] was over 2000 nM; the half-inhibitory concentration (IC50) under setting [3] is over 10000 nM; the IC50 under setting [4] is over 2000 nM; the concentration for half-maximal inhibition (IC50) under setting [5] is over 2000 nM; the half-inhibitory concentration (IC50) under setting [6] is over 2000 nM. In addition, the IC50 under setting [7] is over 2000 nM.
Turning to `CC(=O)c1c([S+](C)[O-])n(Cc2ccc(F)c(Cl)c2)c2c(Br)ccc(Cl)c2c1=O` (centres unmarked) [Compound 22, 3-acetyl-8-bromo-5-chloro-1-(3-chloro-4-fluorobenzyl)-2-(methylsulfinyl)quinolin-4(1H)-one], the IC50 reads like this: under setting [1], over 2000 nM; under setting [2], over 2000 nM; under setting [3], over 10000 nM; under setting [4], over 2000 nM; under setting [5], over 2000 nM; under setting [6], over 2000 nM. Besides, the IC50 under setting [7] was over 2000 nM.
In the case of `CC(=O)c1c(SCc2ccccc2)n(C(=O)c2ccc(Br)cc2)c2c(Br)ccc(Cl)c2c1=O` [Compound 23, 3-acetyl-2-(benzylthio)-8-bromo-1-(4-bromobenzoyl)-5-chloroquinolin-4(1H)-one], the IC50 reads like this: under setting [1], over 2000 nM; under setting [2], over 2000 nM; under setting [3], over 10000 nM; under setting [4], over 2000 nM; under setting [5], over 2000 nM; under setting [6], over 2000 nM. The IC50 under setting [7] was over 2000 nM.

These data come from patent US11464770B2, “Anticancer pharmaceutical composition” (NATIONAL CANCER CENTER, priority 2016, dated 2022).
